# Assays:
# [1] = test system: THP-1 monocytic leukemia cells; assay: Cell viability/toxicity, THP-1; assay type: cell-based, Human; details: 48 h, serum-containing medium, 50 μM, data not shown
# Method: (§1) Cell culture. Human monocytic leukemia THP-1, OCI-AML-3 acute myeloid leukemia and human HT1080 fibrosarcoma cells were cultured as described (Koivunen et al., 1999; Koivunen et al., 2001; Stefanidakis et al., 2003). The cell viability was measured using an 3-[4,5-dimethylthiazol-2-yl]-2,5-diphenyl tetrazolium bromide assay as described (Bjorklund et al., 2004).
# (§2) We next evaluated the ability of DDGW peptide and the chemicals to compete with antibody binding to immobilized αM I domain-GST fusion. […] The epitope of this antibody is located in the β2 I-like domain (FIG. 4B). […] Before conducting cell-based experiments, we tested possible toxicity of the chemicals. The compounds were incubated with THP-1 monocytic leukemia and OCI-AML-3 acute myeloid leukemia cells for 48 h in serum-containing cell culture medium.
# [2] = test system: OCI-AML-3 acute myeloid leukemia cells; assay: Cell viability/toxicity, OCI-AML-3; assay type: cell-based; details: 48 h, serum-containing medium, 50 μM, data not shown
# Method: as §1, §2
# [3] = biological target: T1, αM I domain (Homo sapiens, UniProt P11215); assay: Inhibition of antibody binding to immobilized αM I domain-GST fusion; details: for inhibition at 50 µM: read-out: inhibition of mAb LM2/1 binding
# T1 construct: immobilizing 20 ng/well recombinant αM I domain-GST fusion in 96-well plates
# Method: (§3) Inhibition of antibody binding to the integrins. The αM I domain or purified αMβ2 integrin (50 ng/well) were coated on microtiter wells followed by saturation of the wells with 1% BSA in PBS/0.05% Tween20. The DDGW peptide or the compounds at concentrations indicated were preincubated for 30 minutes with the integrin, followed by addition of the antibodies LM2/1, MEM170, OKM-10, IB4 or a control IgG at a 1 μg/ml final concentration. The antibodies LM2/1 and MEM170 recognize the αM integrin I domain, whereas the epitope for OKM-10 is located outside the αM I domain (Koivunen et al., 2001; Li et al., 1995; Stefanidakis et al., 2003). The antibodies were incubated for 45 minutes followed by detection of the bound antibodies with a peroxidase conjugated anti-mouse antibody.
# [4] = test system: THP-1 cells; assay: THP-1 transwell migration on LLG-C4-GST coating; assay type: cell-based, Human
# Method: (§4) Cell adhesion and migration. Cell adhesion was performed as described (Koivunen et al., 2001). Briefly, THP-1 cells (50 000/well) were stimulated with 50 nM PDBu (4β-phorbol-12,13-dibutyrate, SigmaAldrich) and allowed to bind to the fibrinogen coated microtiter wells (10 μg/ml) in the presence or absence of compounds or DMSO in serum-free RPMI medium containing 0.1% BSA. Non-adherent cells were removed by gentle washing with PBS or 2.5 mM EDTA in PBS, and adherent cells were quantitated with a phosphatase assay (Koivunen et al., 2001). Alternatively, THP-1 cells were stimulated with 20 nM PDBu and allowed to adhere on uncoated plastic overnight. Nonadherent cells were removed by washing with PBS followed by six washes with 2.5 mM EDTA in PBS. Cell migration was done using transwells (5 μm pore size) coated with 40 μg/ml LLG-C4-GST or fibrinogen (Koivunen et al., 2001). THP-1 and OCI-AML-3 cells (50 000 cells/100 μl) were allowed to migrate overnight in 10% FBS/RPMI medium in the presence or absence of peptides or compounds and stimulating cell migration with 40 nM PDBu. Gelatinase-selective inhibitor I (InhI) at a 50 μM concentration (Calbiochem) was used to evaluate the level of gelatinase-dependent migration on fibrinogen. Migrated cells were stained with crystal violet and counted (Koivunen et al., 2001). Migration of HT1080 cells on serum coated transwells was conducted as described (Koivunen et al., 1999).
# [5] = biological target: T2, αM I domain-GST fusion (Homo sapiens, UniProt P11215); assay: DDGW-phage binding competition assay; details: dilution series 10 μM to 150 nM; mean of three independent experiments; read-out: IC50 for the inhibition of DDGW-phage binding to the αM I domain
# T2 construct: immobilizing 20 ng/well recombinant αM I domain-GST fusion in 96-well plates
# Method: Screening of the compound library. A combinatorial library of 10 000 small molecules was purchased from ChemBridge (San Diego, Calif.). A competition assay with the DDGW peptide bearing phage was set up by immobilizing 20 ng/well recombinant αM I domain-GST fusion in 96-well plates (Michishita et al., 1993). The compounds were used in pools comprising eight compounds, each at a 5 μM concentration and DMSO at a 1.25% concentration. After preincubation of the compounds in the wells, DDGW phage was added (3×10^8 transducing units/well). As controls, soluble DDGW peptide and a control peptide, and an unrelevant phage were included in every plate. Phage binding was detected with an anti-phage antibody as described (Bjorklund et al., 2004). Pools with inhibitory activity were re-tested as single compounds. The DDGW-phage inhibiting activity of these hits at a 10 μM concentration is shown in supplementary data. To calculate the IC50 values for the compounds, dilution series from the DDGW peptide and compounds were made (10 μM to 150 nM) and DDGW phage binding was measured. No inhibitor (DMSO as a vehicle) was used as 100% binding after subtracting the background value obtained with an irrelevant control phage.
# [6] = biological target: T3, αM I domain / proMMP-9 (Homo sapiens, UniProt P11215); assay: proMMP-9 binding to the αM integrin I domain; details: 10 μM
# T3 construct: Soluble αM integrin I domain-GST fusion (2.5 μg/ml) was added; made in house
# Method: proMMP-9 and fibrinogen binding to the αM integrin I domain. […] The resulting MMP-9 with this mutation is structurally identical to the wild type protein (Rowsell et al., 2002). ProMMP-9-ΔHC-E^402Q, intact proMMP-9 or fibrinogen (100 ng/well) was coated on microtiter wells in TBS followed by saturation of the wells with 1% BSA in PBS/0.05% Tween20. Soluble αM integrin I domain-GST fusion (2.5 μg/ml) was added in the presence or absence of peptides or compounds in 0.1% BSA/TBS/0.05% Tween20/1 mM CaCl2/1 mM MgCl2, and incubated for one hour. In some experiments 10 mM CaCl2 or 10 mM MgCl2 were used instead of 1 mM CaCl2/1 mM MgCl2. Bound GST fusion was detected with anti-GST antibody (1:2000 dilution) and peroxidase-conjugated anti-goat antibody (1:2000 dilution).
# [7] = biological target: αMβ2 integrin (Homo sapiens, UniProt P11215); assay: Inhibition of antibody binding to purified αMβ2 integrin; details: 25 μM; epitope in β2 I-like domain
# Method: as §3
# [8] = biological target: T4, αL I domain (Homo sapiens, UniProt P20701); assay: Antibody binding to αL I domain
# T4 sequence (P20701 156-327 limits assumed): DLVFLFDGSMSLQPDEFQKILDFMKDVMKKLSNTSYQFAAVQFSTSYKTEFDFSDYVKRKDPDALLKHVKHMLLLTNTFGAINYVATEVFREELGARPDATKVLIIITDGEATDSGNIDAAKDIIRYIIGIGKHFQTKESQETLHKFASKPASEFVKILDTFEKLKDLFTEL
# [9] = test system: THP-1 cells; assay: THP-1 adhesion to fibrinogen; assay type: cell-based, Human
# Method: as §4, with “Migration of HT1080 cells on serum coated transwells was conducted as described (Koivunen et al., 1999).” left out
# [10] = test system: HT1080 fibrosarcoma cells; assay: HT1080 migration on serum coated transwells; assay type: cell-based, human
# Method: as §4, with “Migration of HT1080 cells on serum coated transwells was conducted as described (Koivunen et al., 1999).” left out
# [11] = test system: leukocytes emigrated into the peritoneum; assay: Thioglycollate-induced peritonitis, leukocyte emigration in vivo; parameters: species or system mice; details: i.v.
# Method: Neutrophil emigration in vivo. The mouse experiments were approved by the ethical committee for the animal experiments at the University of Helsinki. Inflammation was induced in BALB/cOlaHsd female maintained in the Viikki Laboratory Animal Centre by injecting 1 ml 4% thioglycollate broth in PBS i.p. followed by intravenous injections of chemicals (200 μl at a 20, 5 or 1 μg/ml concentration) or PBS after five minutes. Cells emigrated in the peritoneum after 3 or 24 h were counted using a hemocytometer. Statistical significance between groups in the peritonitis model was calculated with one-way ANOVA and found differences were analyzed by Bonferroni pairwise multiple comparison tests. Results with p<0.01 were deemed significant.
# [12] = test system: THP-1 cells; assay: THP-1 adhesion to uncoated plastic; assay type: cell-based, Human; details: 20 nM PDBu; 25 μM compounds; overnight
# Method: as §4, with “Migration of HT1080 cells on serum coated transwells was conducted as described (Koivunen et al., 1999).” left out
# [13] = test system: THP-1 cells; assay: THP-1 transwell migration on fibrinogen; assay type: cell-based, Human; details: 25 μM, 40 nM PDBu
# Method: as §4, with “Migration of HT1080 cells on serum coated transwells was conducted as described (Koivunen et al., 1999).” left out
# [14] = test system: OCI-AML-3 cells; assay: OCI-AML-3 transwell migration on fibrinogen; assay type: cell-based; details: 25 μM, 40 nM PDBu
# Method: as §4, with “Migration of HT1080 cells on serum coated transwells was conducted as described (Koivunen et al., 1999).” left out
# [15] = test system: OCI-AML-3 cells; assay: Pericellular gelatinase-dependent uPAR cleavage; assay type: cell-based; details: 20 μM; PDBu stimulated; 48 hours
# Method: Cellular cleavage of the urokinase-plasminogen activator receptor. Pericellular gelatinase-dependent uPAR cleavage was performed as described (Bjorklund et al., 2004). Briefly, OCI-AML-3 cells were stimulated with PDBu or left untreated and cultured for 48 hours in the presence of 20 μM IMB-10, the gelatinase-selective inhibitor (InhI) or vehicle (DMSO). uPAR and the cleaved form of uPAR D2+3 was detected with western blotting using a polyclonal antibody to uPAR (399R, American Diagnostica).
smiles,measurement,setting,value
"O=C1/C(=C/c2ccc(-c3cccc([N+](=O)[O-])c3)o2)SC(=S)N1Cc1ccccc1 [IMB-6, (Z)-3-benzyl-5-((5-(3-nitrophenyl)furan-2-yl)methylene)-2-thioxothiazolidin-4-one]",toxicity / effect on cell proliferation,[1],toxic
same,toxicity / effect on cell proliferation,[2],toxic
same,inhibition at 50 µM,[3],75%
"CC[C@H](C)C(=O)O[C@H]1C[C@@H](C)C=C2C=C[C@H](C)[C@H](CC[C@@H]3C[C@@H](O)CC(=O)O3)[C@H]21 [lovastatin, reference compound]",effect on antibody binding,"[3]; DDGW peptide 100 μM, chemical competitors 50 μM",only a marginal effect
"Cc1ccccc1N1C(=O)/C(=C/C=C/c2ccccc2)SC1=S [IMB-10, (5Z)-5((E)-3-phenylallylidene)-2-thioxo-3-o-tolylthiazolidin-4-one]",toxicity / effect on cell proliferation,[1],no significant effect
same,inhibition of cell migration on LLG-C4-GST,[4]; 25 μM,potently inhibited cell migration
same,IC50,[5],400 ± 200 nM
same,αM I domain binding to proMMP-9-E402Q-ΔHC,[6]; 10 mM Ca2+,nearly completely antagonized
same,αM I domain binding to proMMP-9-E402Q-ΔHC,[6]; 10 mM Mg2+,strong binding
same,αM I domain binding to proMMP-9-E402Q-ΔHC,[6]; equimolar Ca2+ and Mg2+,intermediate
same,inhibition of mAb IB4 binding to purified αMβ2,[7],inhibited
same,binding of TS1/22 and MEM83 antibodies to αL I domain,[8],similarly affected
same,adhesion to fibrinogen after washings with EDTA,"[9]; 50 nM PDBu, 25 μM, 2.5 mM EDTA",more resistant
same,cell adhesion in the absence of phorbol ester activation,"[9]; no phorbol ester, data not shown",did not increase cell adhesion
same,β2 integrin-independent migration of HT1080 cells,[10],no effect
same,number of leukocytes emigrated into the peritoneum,[11]; after 24 hours,still low
same,number of leukocytes emigrated into the peritoneum,[11]; three hours after induction,dose-dependent decrease
same,adhesion to plastic after washing with 2.5 mM EDTA,[12],resisted detachment and remained adherent
same,inhibition of migration on fibrinogen-coated transwells,[13],completely inhibited migration
same,toxicity / effect on cell proliferation,[2],no significant effect
same,inhibition at 50 µM,[3],75%
same,inhibition of migration on fibrinogen-coated transwells,[14],completely inhibited migration
same,inhibition of uPAR cleavage (uPAR D2+3 form),[15],could not be inhibited
"CCN1C(=O)/C(=C\c2ccc(OCCCOc3cc(C)cc(C)c3)c(OC)c2)SC1=S [IMB-2, (E)-5-(4-(3-(3,5-dimethylphenoxy)propoxy)-3-methoxybenzylidene)-3-ethyl-2-thioxothiazolidin-4-one]",toxicity / effect on cell proliferation,[1],no significant effect
same,inhibition of cell migration on LLG-C4-GST,[4]; 25 μM,did not siginificantly inhibit cell migration
same,inhibition of cell migration on LLG-C4-GST,"[4]; 100 μM, not shown",became inhibitory
same,inhibition of migration on fibrinogen-coated transwells,[13],less active
same,toxicity / effect on cell proliferation,[2],no significant effect
same,inhibition of migration on fibrinogen-coated transwells,[14],less active

# — patent US20080108677A1, “Thioxothiazolidinone Compounds For Use As Pharmaceuticals” (Karyon-CTT Ltd, priority 2004, published 2008)
